Columns and labels:
C2C12 cells [1] = assay: Western blotting of late differentiation marker MyHC in C2C12 myoblasts; assay type: cell-based, mouse; settings: 5, 50, or 100 ug/ml peptide, after 7 days in differentiation medium, vs CM group
Procedure: The C2C12 cells were cultured in a DMEM supplemented with 1% P/S and 2% BCS. When the cell confluency reached 70-80%, the cells were seeded into 6-well culture plates. Afterwards, when the cell confluency in the 6-well culture plate reached 100%, the culture medium was replaced with a differentiation medium (supplemented with 1% P/S and 2% horse serum), and 5, 50, or 100 ug/ml of the peptide of SEQ ID NO: 1 was added thereto. Afterwards, the differentiation medium and the same amount of the peptide of SEQ ID NO: 1 were replaced and added, respectively, once every two days. […] These proteins were then quantified by using a BCA kit. SDS-PAGE was performed on samples containing these proteins to separate the respective proteins which were then electrotransferred onto a membrane. The membrane to which the proteins were attached was blocked by treating with 5% skim milk, and primary antibodies were allowed for a reaction overnight at 4° C. After washing with PBS-T, secondary antibodies were allowed for a reaction at room temperature for 1 hour. After washing with PBS-T again, the proteins were detected by using Gel Doc (Bio-Rad, Hercules, CA, USA) and Western detection reagents (Elpis Biotech, Daejeon, Korea). […]

C2C12 cells [2] = assay: Western blotting of early differentiation markers in C2C12 myoblasts; assay type: cell-based, mouse; settings: 5, 50, or 100 ug/ml peptide, after three days in differentiation medium, vs CM group
Procedure: In this example, by evaluating changes in the expression of an early differentiation marker protein of C2C12 cells, which are mouse myoblasts, it was to confirm the effects of the peptide according to an example on the differentiation of myoblasts into muscle cells/muscle fibers at an early differentiation stage.
The C2C12 cells were cultured in a DMEM supplemented with 1% P/S and 2% BCS. When the cell confluency reached 70-80%, the cells were seeded into 6-well culture plates. Afterwards, when the cell confluency in the 6-well culture plate reached 100%, the culture medium was replaced with a differentiation medium (supplemented with 1% P/S and 2% horse serum), and 5, 50, or 100 ug/ml of the peptide of SEQ ID NO: 1 was added thereto. Afterwards, the differentiation medium and the same amount of the peptide of SEQ ID NO: 1 were replaced and added, respectively, once every two days. After three days from the first day of medium replacement, the culture was lysed by adding a dissolution buffer thereto, and proteins were obtained by centrifugation at 4° C. and 12,000 rpm for 30 minutes. These proteins were then quantified by using a BCA kit. […] After washing with PBS-T again, the proteins were detected by using Gel Doc (Bio-Rad, Hercules, CA, USA) and Western detection reagents (Elpis Biotech, Daejeon, Korea). […]

[3] = tested on: muscle tissue, muscle damage induced by BaCl2; assay: Sirius red staining of muscle tissue from BaCl2-induced muscle damage model; assay type: in vivo, C57BL/6 mouse; settings: 20 mg peptide orally, six times, Day 7 after BaCl2 muscle damage
Procedure: (§1) 50 μl of a 1.2% (w/v) BaCl2 aqueous solution was injected into the tibialis anterior (TA) muscle of a 8-week-old male C57BL/6 mouse to induce muscle damage for 1 day. Afterwards, 20 mg of the peptide of SEQ ID NO: 1 was administered orally at a concentration of 0.1 mg/μl at 1-day intervals for a total of six times to the mouse with induced muscle damage. For a positive control group, 0.5 ug of IGF-I was injected intramuscularly at a concentration of 0.01 ug/μl. On Day 7 after inducing the muscle damage, the mouse was sacrificed, and the changes in the TA muscle were visually observed and the mouse was weighed. A non-treated group (Non) was used as a control group, a group (N.C) in which only muscle damage was induced by BaCl2 was used as a negative control group, and a group (P.C) in which muscle damage was induced by BaCl2 and then treated with IGF-I was used as a positive control group. Muscle tissue obtained from the mouse with induced muscle damage of Example 4-1 was washed with PBS at room temperature and then fixed with 4% paraformaldehyde (PFA). Afterwards, the fixed muscle tissue was washed three times with PBS and dehydrated by using a gradient ethanol series (from 70% to 100%). A sample of the muscle tissue was sectioned into 4 μm sections. […]

[4] = tested on: muscle tissue, muscle damage induced by BaCl2; assay: H&E staining of muscle tissue from BaCl2-induced muscle damage model; assay type: in vivo, C57BL/6 mouse; settings: 20 mg peptide orally, six times, Day 7 after BaCl2 muscle damage
Procedure: as §1

C2C12 cells [5] = assay: Immunofluorescence of myogenin (MyoG) in C2C12 myoblasts; assay type: cell-based, mouse; settings: 100 ug/ml peptide, after three days in differentiation medium
Procedure: C2C12 cells were cultured in a DMEM supplemented with 1% P/S and 2% BCS. When the cell confluency reached 70-80%, the cells were seeded into a 6-well culture plate. Afterwards, when the cell confluency in the 6-well culture plate reached 100%, the culture medium was replaced with a differentiation medium (supplemented with 1% P/S and 2% horse serum), and 100 ug/ml of the peptide of SEQ ID NO: 1 was added thereto. Afterwards, the differentiation medium and 100 ug/ml of the peptide were replaced and added, respectively, once every two days. After three days from the first day of medium replacement, the cultured cells were fixed with 4% paraformaldehyde (PFA) at room temperature for 10 minutes and permeabilized with 0.1% triton X-100 for 5 minutes. Afterwards, the fixed cells were mixed with PBS, 10% FBS, and 0.1% triton X-100 for blocking at room temperature for 1 hour, and then treated with primary antibodies (MyoG, Santa Cruz, USA). The resulting cells were incubated for 1 hour at room temperature. Afterwards, the cells were washed, and incubated again with secondary antibodies (goat anti-mouse IgG-TR, Santa Cruz, USA) at room temperature for 30 minutes. Afterwards, the cell nuclei were stained with DAPI (Santa Cruz, USA) and observed under a LEICA fluorescence microscope (TCS SP8, LEICA, Germany).

C2C12 cells [6] = assay: Immunofluorescence of a-actinin in C2C12 myoblasts; assay type: cell-based, mouse; settings: after 7 days in differentiation medium, vs CM group
[7] = tested on: tibialis anterior (TA) muscle, muscle damage induced by BaCl2; assay: Muscle mass of TA muscle in BaCl2-induced muscle damage animal model; assay type: in vivo, C57BL/6 mouse; settings: 20 mg peptide orally at 1-day intervals, six times; Day 7 after BaCl2 muscle damage
Procedure: In this example, an animal model of muscle damage induced by BaCl2 was used to determine the effect of the peptide according to an embodiment on the muscle loss prevention, by evaluating changes in muscle mass, areas of infiltration of immune cells in muscle tissue, levels of accumulated collagen, and expression levels of proteins constituting muscle fibers and inflammatory proteins. 50 μl of a 1.2% (w/v) BaCl2 aqueous solution was injected into the tibialis anterior (TA) muscle of a 8-week-old male C57BL/6 mouse to induce muscle damage for 1 day. Afterwards, 20 mg of the peptide of SEQ ID NO: 1 was administered orally at a concentration of 0.1 mg/μl at 1-day intervals for a total of six times to the mouse with induced muscle damage. For a positive control group, 0.5 ug of IGF-I was injected intramuscularly at a concentration of 0.01 ug/μl. On Day 7 after inducing the muscle damage, the mouse was sacrificed, and the changes in the TA muscle were visually observed and the mouse was weighed. A non-treated group (Non) was used as a control group, a group (N.C) in which only muscle damage was induced by BaCl2 was used as a negative control group, and a group (P.C) in which muscle damage was induced by BaCl2 and then treated with IGF-I was used as a positive control group.

[8] = tested on: muscle tissue, muscle damage induced by BaCl2; assay: Western blotting of protein expression in muscle tissue from BaCl2-induced muscle damage model; assay type: in vivo, C57BL/6 mouse; settings: 20 mg peptide orally, six times, Day 7 after BaCl2 muscle damage
Procedure: 50 μl of a 1.2% (w/v) BaCl2 aqueous solution was injected into the tibialis anterior (TA) muscle of a 8-week-old male C57BL/6 mouse to induce muscle damage for 1 day. Afterwards, 20 mg of the peptide of SEQ ID NO: 1 was administered orally at a concentration of 0.1 mg/μl at 1-day intervals for a total of six times to the mouse with induced muscle damage. For a positive control group, 0.5 ug of IGF-I was injected intramuscularly at a concentration of 0.01 ug/μl. On Day 7 after inducing the muscle damage, the mouse was sacrificed, and the changes in the TA muscle were visually observed and the mouse was weighed. A non-treated group (Non) was used as a control group, a group (N.C) in which only muscle damage was induced by BaCl2 was used as a negative control group, and a group (P.C) in which muscle damage was induced by BaCl2 and then treated with IGF-I was used as a positive control group. The muscle tissue obtained from the mouse with the induced muscle damage of Example 4-1 was lysed by using homogenizer, and the lysate was dissolved by adding a dissolution buffer thereto. The resulting product was centrifuged at 4° C. and 12,000 rpm for 30 minutes to obtain proteins which were then quantified by using a BCA kit. SDS-PAGE was performed on samples containing these proteins to separate the respective proteins which were then electrotransferred onto a membrane. The membrane to which the proteins were attached was blocked by treating with 5% skim milk, and primary antibodies were allowed for a reaction overnight at 4° C. After washing with PBS-T, secondary antibodies were allowed for a reaction at room temperature for 1 hour. After washing with PBS-T again, the proteins were detected by using Gel Doc (Bio-Rad, Hercules, CA, USA) and Western detection reagents (Elpis Biotech, Daejeon, Korea). Here, anti-MyHC (Santa Cruz, USA), anti-α-actinin (Santa Cruz, USA), anti-α-SMA (Abcam, UK), anti-IL-6 (Santa Cruz, USA), and anti-a-tubulin (Santa Cruz, USA) were used as the primary antibodies.

In the case of EAEYEHL [peptide of SEQ ID NO: 1], the “expression of MyHC, late differentiation marker of myoblasts” value (C2C12 cells [1]) is reported as “increased”, the “expression of Myf5, early differentiation marker of myoblasts” value (C2C12 cells [2]) is reported as “increased” and the “expression of myogenin (MyoG), early differentiation marker of myoblasts” value (C2C12 cells [2]) is reported as “increased”. For the same substance, the “accumulation of collagen in the tissue” value [3] was “reduced”, the “area of infiltration of immune cells in the tissue” value [4] was “reduced” and the “expression of myogenin (MyoG)” value (C2C12 cells [5]) was “increased”. For the same substance, the “expression of myogenin (MyoG) in the nuclear region of myoblasts” value (C2C12 cells [5]) was “increased”, the “expression of a-actinin, late differentiation marker of myoblasts” value (C2C12 cells [6]) was “increased” and the “muscle mass of the TA muscle” value [7] was “increased”. For the same substance, the “expression of IL-6 in damaged tissue” value [8] was “decreased”, the “expression of MyHC, protein constituting muscle fibers, in damaged tissue” value [8] was “increased” and the “expression of α-SMA, inflammatory protein, in damaged tissue” value [8] was “decreased”. The “expression of α-actinin in damaged tissue” value [8] was “increased”.
